Reference: patent US20050026911A1, “Benzotriazapinone salts and methods for using same” (priority 2003, published 2005)
Each block holds one molecule with its values, some of them ahead of it.

Experiments:
CCK2 receptor = target: T1, CCK2 receptor (Rattus norvegicus, UniProt P30553); conditions: rat cortical membranes; Nishida et al. 1994; cited from earlier work
T1 construct: host or cells: rat cortical membranes
T1 sequence (P30553 1-452): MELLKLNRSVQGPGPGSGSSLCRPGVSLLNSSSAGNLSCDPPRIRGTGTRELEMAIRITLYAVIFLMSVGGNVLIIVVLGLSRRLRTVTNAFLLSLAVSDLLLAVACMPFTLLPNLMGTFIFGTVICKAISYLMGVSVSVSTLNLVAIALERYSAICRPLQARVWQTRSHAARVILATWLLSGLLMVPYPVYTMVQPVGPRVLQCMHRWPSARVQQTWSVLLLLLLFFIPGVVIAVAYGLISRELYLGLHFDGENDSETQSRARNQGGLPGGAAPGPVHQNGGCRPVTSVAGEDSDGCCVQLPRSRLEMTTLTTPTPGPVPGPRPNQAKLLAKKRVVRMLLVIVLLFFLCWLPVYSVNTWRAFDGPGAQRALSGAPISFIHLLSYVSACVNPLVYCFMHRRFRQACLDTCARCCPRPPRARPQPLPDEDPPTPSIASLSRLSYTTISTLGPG

gastrin (CCK2) receptors [1] = target: T2, gastrin (CCK2) receptors (Rattus norvegicus, UniProt P30553); conditions: rat stomach assay; Kalindjian et al., J. Med. Chem. 1994; cited from earlier work
T2 construct: The stomach was excised and flushed with ca. 1 ml of unbuffered physiological saline solution; from tissue; host or cells: isolated whole stomach of immature rats (ca. 21 days old)
T2 sequence (P30553 1-452): T1 sequence (P30553 1-452)

[2] = target: T3, human gastrin (CCK2) receptors (Homo sapiens, UniProt P32239); experiment: [125I]-BH-CCK-8S binding at human gastrin (CCK2) receptors cloned into an NIH3T3 cell line
T3 construct: amplified by PCR (polymerase chain reaction) from the start codon to the stop codon; expressed in transfected cells
T3 sequence (P32239 1-447): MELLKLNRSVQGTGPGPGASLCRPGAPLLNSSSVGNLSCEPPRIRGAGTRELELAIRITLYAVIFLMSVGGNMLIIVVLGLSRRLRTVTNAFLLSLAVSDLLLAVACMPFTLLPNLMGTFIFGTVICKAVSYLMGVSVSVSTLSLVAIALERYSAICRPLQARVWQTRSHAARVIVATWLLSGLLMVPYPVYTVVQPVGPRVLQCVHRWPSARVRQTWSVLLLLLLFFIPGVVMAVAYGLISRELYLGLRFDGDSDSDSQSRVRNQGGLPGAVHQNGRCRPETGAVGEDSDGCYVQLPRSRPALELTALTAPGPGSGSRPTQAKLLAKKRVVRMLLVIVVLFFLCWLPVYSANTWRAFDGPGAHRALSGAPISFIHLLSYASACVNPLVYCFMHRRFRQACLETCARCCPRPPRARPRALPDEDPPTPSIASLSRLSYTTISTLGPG
Protocol: NIH3T3 cells from (ECACC) were cultured in Dulbecco's modified Eagle's medium (DMEM) (Invitrogen), containing 2 mM Glutamax I (Invitrogen), 10% heat inactivated newborn calf serum (Invitrogen). Cells (4×10^5) were seeded into 35 mm×10 mm dishes (Corning) and transfected using the Transfast™ reagent (Promega Corp.) according to the manufacturers instructions using 10 μg of the hCCK2R plasmid DNA at a ratio of 1:1 (DNA:Transfast™ reagent). Untransfected cells and cells transfected with vector only were also prepared as controls. After 48 h the cells were trypsinised using standard techniques (Culture of Animal Cells, A Manual of Basic Techniques 4th Ed, R. Ian Freshney) and dilutions were plated on 35 mm×10 mm dishes in media containing 800 μg/ml G-418 (Invitrogen). Cells were selected for 2 weeks until individual, separate colonies appeared. […] Using cloning rings and trypsinisation, according to standard techniques (Culture of Animal Cells, A Manual of Basic Techniques 4th Ed, R. Ian Freshney), individual colonies were picked from plates containing cells transfected with the vector only and cells transfected with the hCCK2R plasmid construct. The cells were expanded and analysed by radioligand binding analysis (see below).
Cultured clone 7 cells were stored as frozen pellets at −70° C. until required. Cell pellets were thawed in CCK2 assay buffer ((mM): 10 Hepes; 130 NaCl; 5 MgCl2; 4.7 KCl; 1 EGTA (pH7.2 at 21° C.) with 0.125 g Bacitracin added to each litre), and homogenised using a Polytron (4×1 s). The resulting membrane preparation was centrifuged at 39,800 g for 15 min at 4° C. Each cell pellet was re-suspended in fresh buffer and re-centrifuged as above. The final pellet was re-suspended by homogenisation (Teflon-in-glass), to the appropriate membrane concentration.
The assays were terminated by rapid filtration through pre-soaked Whatman GF/B filters which were washed (3×3 ml) with ice-cold 50 mM Tris HCl (pH7.4 @ 4° C.). Filters were transferred to plastic gamma counter vials and bound radioactivity determined by counting (1 min) in a Clini-gamma counter.
Saturation data were analysed using the curve-fitting programmes, Radlig and Ligand.
Briefly, dilution and addition of test compounds, radioligand and cell membranes were performed using a Beckman Biomek 2000. The ability of compounds to inhibit the specific binding of to hCCK2 receptors was determined in triplicate over a range of concentrations at half-log intervals. Total and non-specific binding was determined for each compound. Each compound was tested in a minimum of three experiments. Competition data were fitted to the Hill equation using Graph-pad Prism software to obtain estimates of the IC50 (mid-point location parameter) and nH (mid-point slope parameter). Dissociation constants (KI) were determined using the Cheng & Prusoff equation (1973) to correct for the receptor occupancy by the radioligand.

gastrin (CCK2) receptors [3] = target: T2, gastrin (CCK2) receptors; experiment: gastrin (CCK2) antagonist activity in an immature rat stomach assay; conditions: pentagastrin dose-response curves, acid secretion, read-out: pKB rat stomach (converted)
Procedure, shortened: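 Pentagastrin dose-response curves were run cumulatively 60 min after drug went into the serosal bath, itself after 120 min stabilisation. Preparation: perfused stomach from rats ca. 21 days old (33-50 g), with unbuffered saline under 100% O2 at 1 ml min^−1 and perfusate pH monitored.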

Structure (SMILES): CNc1cccc(NC(=O)N[C@@H]2N=C(c3ccccn3)c3ccccc3N(CC(=O)C(C)(C)C)C2=O)c1 [YF476]
affinity pKi for the CCK2 receptor (CCK2 receptor): 10.17+0.03

Structure (SMILES): Cc1cccc(NC(=O)N[C@@H]2N=C(c3ccccc3)c3ccccc3N(C)C2=O)c1 [L-365,260]
affinity pKB for the CCK2 receptor (gastrin (CCK2) receptors [1]): 7.61±0.12

pKi ± s.e.mean ([2]; displacement of [125I]-BH-CCK-8S, hCCK2R NIH3T3 clone 7 cell membranes): 9.48 ± 0.08 | Kb (gastrin (CCK2) receptors [3]): 1.48 nM
Structure (SMILES): O=C(O)CSc1cccc(NC(=O)CN2N=C(C3CCCCC3)c3ccccc3N(CC(=O)C3CCCC3)C2=O)c1 [Example 58, (3-{2-[5-Cyclohexyl-1-(2-cyclopentyl-2-oxo-ethyl)-2-oxo-1,2-dihydro-3H-1,3,4-benzotriazepin-3-yl]-acetylamino}-phenylsulfanyl)-acetic acid]

Ki ([2]; read-out: pKi ± s.e.mean (converted)): 0.219 nM | Kb (gastrin (CCK2) receptors [3]): 9.55 nM
Structure (SMILES): CC(C)(C)C(=O)CN1C(=O)N(CC(=O)Nc2cccc(-c3nc(=O)o[nH]3)c2)N=C(C2CCCCC2)c2ccccc21 [Example 59, 2-[5-Cyclohexyl-1-(3,3-dimethyl-2-oxo-butyl)-2-oxo-1,2-dihydro-3H-1,3,4-benzotriazepin-3-yl]-N-[3-(5-oxo-Z5-dihydro-[1,2,4]oxadiazol-3-yl)-phenyl]-acetamide]
